Reference: PubChem BioAssay (NCI)
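Tested at 5 concentrations; 48 h exposure; 96-well plates; endpoints linearly interpolated, else capped at highest concentration. GI50 = concentration required for 50% inhibition of growth. TGI denotes the concentration required for complete inhibition of growth.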

Experiments:
Assay in all cases: DTP human tumour cell line panel, 48 h
[1] = system: HCT-116 colon
[2] = system: MCF7 breast
[3] = system: HCT-15 colon
[4] = system: EKVX NSCLC
[5] = system: MDA-MB-231 breast
[6] = system: IGROV1 ovarian
[7] = system: SR leukemia
[8] = system: OVCAR-5 ovarian
[9] = system: NCI-H226 lung
[10] = system: NCI-H522 lung
[11] = system: COLO 205 colon
[12] = system: BT-549 breast
[13] = system: SK-MEL-5 melanoma
[14] = system: KM12 colon
[15] = system: UACC-62 melanoma
[16] = system: RXF 393 renal
[17] = system: HOP-92 NSCLC
[18] = system: A498 renal
[19] = system: UO-31 renal
[20] = system: SW-620 colon
[21] = system: MOLT-4 leukemia
[22] = system: UACC-257 melanoma
[23] = system: ACHN renal
[24] = system: HL-60(TB) leukemia
[25] = system: SF-268 CNS
[26] = system: OVCAR-4 ovarian
[27] = system: OVCAR-3 ovarian
[28] = system: HOP-62 NSCLC
[29] = system: SNB-19 CNS
[30] = system: SNB-75 CNS
[31] = system: M14 melanoma
[32] = system: NCI-H460 lung
[33] = system: MALME-3M melanoma
[34] = system: HS 578T breast
[35] = system: HT29 colon
[36] = system: SN12C renal
[37] = system: NCI-H23 lung
[38] = system: HCC-2998 colon
[39] = system: T-47D breast
[40] = system: DU-145 prostate
[41] = system: PC-3 prostate
[42] = system: K-562 leukemia
[43] = system: NCI/ADR-RES ovarian
[44] = system: RPMI-8226 leukemia
[45] = system: 786-0 renal
[46] = system: MDA-MB-435
[47] = system: SF-539 CNS
[48] = system: CAKI-1 renal
[49] = system: TK-10 renal
[50] = system: OVCAR-8 ovarian
[51] = system: SK-MEL-2 melanoma
[52] = system: SF-295 CNS
[53] = system: LOX IMVI melanoma
[54] = system: U251 CNS
[55] = system: SK-OV-3 ovarian
[56] = system: A549 NSCLC
[57] = system: SK-MEL-28 melanoma

`O=C(Nc1ccc(OCc2nnc(-c3ccc(Cl)cc3)o2)c(F)c1)Nc1ccc(Cl)c(C(F)(F)F)c1` gave a GI50 [1] of 1800 nM, a TGI [1] of 6.16 µM and a GI50 [2] of 1920 nM. The TGI [2] was 7.7 µM, the GI50 [3] was 2030 nM and the TGI [3] was 10.9 µM. The GI50 [4] was 2640 nM, the TGI [4] was 10.4 µM and the GI50 [5] was 2350 nM. For the same molecule, the TGI [5] was 7.64 µM, the GI50 [6] was 2900 nM and the TGI [6] was 10.5 µM. For the same molecule, the GI50 [7] was 1850 nM, the TGI [7] was 4.9 µM and the GI50 [8] was 3.66 µM. The TGI [8] was 17.6 µM, the GI50 [9] was 2840 nM and the TGI [9] was 13.2 µM. For the same molecule, the GI50 [10] was 2270 nM, the TGI [10] was 7.04 µM and the GI50 [11] was 1730 nM. It also gave a TGI [11] of 3.5 µM, a GI50 [12] of 3.06 µM and a TGI [12] of 11 µM. The GI50 [13] was 2010 nM, the TGI [13] was 4.42 µM and the GI50 [14] was 1710 nM. The TGI [14] was 4.96 µM, the GI50 [15] was 1540 nM and the TGI [15] was 4.21 µM. It also gave a GI50 [16] of 2600 nM, a TGI [16] of 7.76 µM and a GI50 [17] of 1460 nM. For the same molecule, the TGI [17] was 3.82 µM, the GI50 [18] was 1180 nM and the TGI [18] was 7.43 µM. It also gave a GI50 [19] of 1520 nM, a TGI [19] of 4.1 µM and a GI50 [20] of 2900 nM. It also gave a TGI [20] of 11 µM, a GI50 [21] of 2070 nM and a TGI [21] of 7.5 µM. It also gave a GI50 [22] of 2710 nM, a TGI [22] of 11.1 µM and a GI50 [23] of 2110 nM. The TGI [23] was 8.52 µM, the GI50 [24] was 2830 nM and the TGI [24] was 6.78 µM. It also gave a GI50 [25] of 3.33 µM, a TGI [25] of 12.5 µM and a GI50 [26] of 2020 nM. The TGI [26] was 7.59 µM, the GI50 [27] was 1700 nM and the TGI [27] was 5.01 µM. The GI50 [28] was 793 nM, the TGI [28] was 5.84 µM and the GI50 [29] was 2920 nM. For the same molecule, the TGI [29] was 18.3 µM, the GI50 [30] was 1440 nM and the TGI [30] was 6.29 µM. For the same molecule, the GI50 [31] was 2230 nM, the TGI [31] was 11.7 µM and the GI50 [32] was 1850 nM. The TGI [32] was 4.86 µM, the GI50 [33] was 2400 nM and the TGI [33] was 6.33 µM. It also gave a GI50 [34] of 2130 nM, a TGI [34] of 7.96 µM and a GI50 [35] of 2290 nM. It also gave a TGI [35] of 5.69 µM, a GI50 [36] of 2020 nM and a TGI [36] of 7.91 µM. For the same molecule, the GI50 [37] was 2360 nM, the TGI [37] was 7.38 µM and the GI50 [38] was 3.01 µM. For the same molecule, the TGI [38] was 7.98 µM, the GI50 [39] was 2210 nM and the TGI [39] was 8.66 µM. For the same molecule, the GI50 [40] was 2480 nM, the TGI [40] was 6.78 µM and the GI50 [41] was 1840 nM. For the same molecule, the TGI [41] was 7.87 µM, the GI50 [42] was 2940 nM and the TGI [42] was 12.6 µM. The GI50 [43] was 2590 nM, the TGI [43] was 11.5 µM and the GI50 [44] was 1820 nM. The TGI [44] was 8.09 µM, the GI50 [45] was 2050 nM and the TGI [45] was 5.1 µM. It also gave a GI50 [46] of 2620 nM, a TGI [46] of 11.6 µM and a GI50 [47] of 1910 nM. It also gave a TGI [47] of 4.34 µM, a GI50 [48] of 2970 nM and a TGI [48] of 12.2 µM. It also gave a GI50 [49] of 3.72 µM, a TGI [49] of 17 µM and a GI50 [50] of 2970 nM. It also gave a TGI [50] of 12.1 µM, a GI50 [51] of 3.17 µM and a TGI [51] of 9.48 µM. For the same molecule, the GI50 [52] was 2260 nM, the TGI [52] was 6.99 µM and the GI50 [53] was 2230 nM. The TGI [53] was 6.66 µM, the GI50 [54] was 1880 nM and the TGI [54] was 5.03 µM. The GI50 [55] was 3.3 µM, the TGI [55] was 12.5 µM and the GI50 [56] was 2650 nM. It also gave a TGI [56] of 11.7 µM, a GI50 [57] of 3.02 µM and a TGI [57] of 13.5 µM.
